Like-named read-outs stand apart in the source and are kept apart here.

For data set [1], the target named is T1, Mutant EZH2 (A677G) (Homo sapiens, UniProt Q15910, A677G).
T1 construct: purchased BPS 51004
Briefly: AlphaLISA assay on mutant PRC2 complex, EZH2 A677G. The format is biochemical. Background: In Alpha technology, singlet oxygen from a donor bead excites a nearby acceptor bead.
Method: Detection Method: AlphaLISA
(§1) Finally, 15 μl detection solution mixture was added under low light, and incubated at room temperature for 60 minutes, and read the value.

The target in data set [2] is T2, Mutant EZH2 (Y641F) (Homo sapiens, UniProt Q15910, Y641F).
T2 construct: purchased BPS 51004
Briefly: AlphaLISA assay on mutant PRC2 complex, EZH2 Y641F. Type of data set: biochemical.
Method: Detection Method: AlphaLISA
as §1

A short description of data set [3]: Pharmacokinetics experiment in rats. Type of data set: in vivo. Conditions: rat, plasma, male SD rats; for bioavailability: oral 20 mg/kg vs intravenous 4 mg/kg, read-out: Bioavailability (F %); for AUC: read-out: Area under the curve (AUC); for half-life: read-out: Half life (T1/2) (converted); for Cmax: read-out: Blood drug level (Cmax). The method, then:
Male SD rats weighing 200-300 g and 8 weeks old were used as experimental animals. […] The pharmacokinetic behavior of the compound of the present invention in rats was studied, and the pharmacokinetic characteristics thereof were evaluated.
A certain amount of the compound was weighed, dissolved in 0.10% tween for vortex and ultrasound, and then 0.5% sodium carboxymethyl cellulose (CMC-Na) solution was added to prepare a uniform solution.
The above-mentioned compounds were applied intravenously and orally to rats at a dose of 4 mg/kg and a dose of 20 mg/kg, respectively. At 0.083 h, 0.25 h, 0.5 h, 1.0 h, 2.0 h, 4.0 h, 6.0 h, 8.0 h, 12.0 h, and 24.0 h after application, 0.2 mL of blood was collected from the orbit, and placed in an anticoagulant tube, which was centrifuged at 6000 rpm for 10 minutes at 4° C. The plasma was separated and stored at −80° C.

Data set [4] has as its system WSU-DLCL2 cells. Briefly: Calcein AM proliferation assay, WSU-DLCL2 cells. Type of data set: cell-based, human. Conditions: read-out: WSU-DLCL2 proliferation IC50.
Method: (§2) By observing under a microscope, it was confirmed that the cells are in good condition. The cells were transferred to a 15 mL centrifuge tube, which was centrifuged at 1000 rpm for 5 minutes.
Gradient dilutions of the compounds in DMSO were performed, and a compound plate with a final concentration of 500-fold was prepared. 1.2 μL of 500× compound was pipetted, transferred to 200 μL medium, and pipetted to mix well to obtain a 3× compound intermediate plate. 50 μL 3× compound is pipetted and added to the cell plate according to the set arrangement.
The cells of the above concentration were inoculated in 96-well plates, 100 μL/well (the number of cells in each well is 10,000). The cell plate was placed in a carbon dioxide incubator for 4 days. The cell plate was taken out. After mixed uniformly, a certain volume of cell suspension was drawn, and stained with Calcein AM. The number of cells in each well was counted with Acumen. According to the number of detected cells, 10,000 cells were re-inoculated in 96-well plates. As above, the compound was added. After placed in a carbon dioxide incubator for 3 days (day 7). The cell plate was taken out again. After mixed uniformly, a certain volume of cell suspension was drawn, stained with Calcein AM. The number of cells in each well was counted with Acumen. The cells were cultured for another 4 days (day 11), and the cell plate was taken out for the third time. After mixed uniformly, a certain volume of cell suspension was drawn, and stained with Calcein AM. The number of cells in each well was counted with Acumen. According to the number of detected cells, 10,000 cells were re-inoculated in 96-well plates. As above, the compound was added. […] After Calcein AM staining, the number of the cells was counted to obtain the final count result. The data of day 14 was processed to obtain the corresponding half-inhibitory concentration (IC50).
Using GraphPad Prism 5 software, a non-linear regression model was used to draw the S-type dose-survival rate curve and to calculate the IC50 value.
Data set [5] has as its system Karpas 422 cells. Briefly: Calcein AM proliferation assay, Karpas 422 cells. The format is cell-based, human. Conditions: read-out: Karpas422 proliferation IC50.
In data set [6] the target is T3, Mutant EZH2 (Y641N) (Homo sapiens, UniProt Q15910, Y641N).
T3 construct: purchased BPS 51004
Briefly: AlphaLISA assay on mutant PRC2 complex, EZH2 Y641N. Type of data set: biochemical.
Method: Detection Method: AlphaLISA
as §1

Data set [7] deals with wild-type EZH2 (Homo sapiens, UniProt Q15910). Briefly: Radiometric assay of activity on wild-type PRC2 EZH2.
Method: 10 microliters (μL) of the compound of the test example and wild-type EZH2 were added to each well. After being incubated at room temperature for 15 minutes, peptides and [3H]-labeled methyl donor S-adenosylmethionine (SAM) were added. After reacting at room temperature for 1 hour (h), cold SAM was added to terminate the reaction. 25 μl reaction solution was transferred to the scintillation plate. After incubating for 1 hour (h) at room temperature, the plate was washed three times with deionized water and 0.1% Tween 20. The value was read with a PerkinElmer liquid scintillation/luminescence counter, and the half inhibitory concentration (IC50) of the compound was calculated with the Prism 5 software (GraphPad Prism 5).
The test system of data set [8] is Pfeiffer cells. Briefly: Calcein AM proliferation assay, Pfeiffer cells. Conditions: read-out: Pfeiffer proliferation IC50. Type of data set: cell-based, human.
Data set [9] deals with WSU-DLCL2 cell mouse xenograft tumor model. Briefly: Pharmacodynamic experiment in WSU-DLCL2 mouse xenograft tumor model. Conditions: CB17/SCID mice. Type of data set: in vivo.
Method: A certain amount of the compound was weighed, dissolved in 0.1% tween for vortex and ultrasound, and then 0.5% sodium carboxymethyl cellulose (CMC-Na) solution was added to prepare a uniform solution.
as §2
The mark [10] stands for this setting: Homo sapiens, WSUDLCL2, day 14 data, Calcein AM staining.
Setting [11] is: Homo sapiens, KARPAS-422, day 14 data, Calcein AM staining.
Setting [12] is: Homo sapiens, Pfeiffer, day 14 data, Calcein AM staining.
[13] abbreviates: day 14 data, Calcein AM staining.
Setting [14] is: 150 mg/kg gastric irrigation, 21 days.

wild-type EZH2, sequence (Q15910 whole entry): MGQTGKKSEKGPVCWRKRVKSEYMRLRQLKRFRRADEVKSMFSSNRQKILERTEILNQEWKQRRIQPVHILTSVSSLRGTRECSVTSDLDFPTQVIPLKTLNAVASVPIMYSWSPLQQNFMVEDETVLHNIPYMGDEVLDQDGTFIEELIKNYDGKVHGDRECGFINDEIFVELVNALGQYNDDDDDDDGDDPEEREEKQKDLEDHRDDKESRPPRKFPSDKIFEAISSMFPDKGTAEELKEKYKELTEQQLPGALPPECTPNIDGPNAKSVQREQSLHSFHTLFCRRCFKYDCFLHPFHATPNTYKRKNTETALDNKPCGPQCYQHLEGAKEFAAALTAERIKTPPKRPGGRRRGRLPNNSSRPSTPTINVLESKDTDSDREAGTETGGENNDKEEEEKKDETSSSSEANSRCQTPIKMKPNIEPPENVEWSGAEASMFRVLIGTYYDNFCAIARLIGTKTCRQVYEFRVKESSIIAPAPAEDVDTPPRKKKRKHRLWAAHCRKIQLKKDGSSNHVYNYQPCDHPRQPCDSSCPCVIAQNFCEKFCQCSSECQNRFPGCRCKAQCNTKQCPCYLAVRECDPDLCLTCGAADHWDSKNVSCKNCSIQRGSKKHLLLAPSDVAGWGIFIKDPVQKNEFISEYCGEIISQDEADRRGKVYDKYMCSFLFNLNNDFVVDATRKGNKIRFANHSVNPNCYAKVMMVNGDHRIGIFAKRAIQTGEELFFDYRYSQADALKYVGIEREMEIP
wild-type EZH2, sequence (O75530 whole entry partner): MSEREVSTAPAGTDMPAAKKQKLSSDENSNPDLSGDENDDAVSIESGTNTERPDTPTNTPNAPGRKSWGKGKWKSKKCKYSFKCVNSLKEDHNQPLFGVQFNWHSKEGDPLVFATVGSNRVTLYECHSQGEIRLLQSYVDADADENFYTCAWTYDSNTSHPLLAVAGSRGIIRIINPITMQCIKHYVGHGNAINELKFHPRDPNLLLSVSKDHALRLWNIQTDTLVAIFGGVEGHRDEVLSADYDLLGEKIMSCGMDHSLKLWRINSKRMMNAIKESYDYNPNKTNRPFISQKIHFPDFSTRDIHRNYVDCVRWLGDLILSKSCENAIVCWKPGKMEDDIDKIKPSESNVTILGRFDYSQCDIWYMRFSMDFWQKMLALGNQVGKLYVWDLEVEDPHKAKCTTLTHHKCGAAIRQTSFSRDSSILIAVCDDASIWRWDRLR
wild-type EZH2, sequence (Q15022 whole entry partner): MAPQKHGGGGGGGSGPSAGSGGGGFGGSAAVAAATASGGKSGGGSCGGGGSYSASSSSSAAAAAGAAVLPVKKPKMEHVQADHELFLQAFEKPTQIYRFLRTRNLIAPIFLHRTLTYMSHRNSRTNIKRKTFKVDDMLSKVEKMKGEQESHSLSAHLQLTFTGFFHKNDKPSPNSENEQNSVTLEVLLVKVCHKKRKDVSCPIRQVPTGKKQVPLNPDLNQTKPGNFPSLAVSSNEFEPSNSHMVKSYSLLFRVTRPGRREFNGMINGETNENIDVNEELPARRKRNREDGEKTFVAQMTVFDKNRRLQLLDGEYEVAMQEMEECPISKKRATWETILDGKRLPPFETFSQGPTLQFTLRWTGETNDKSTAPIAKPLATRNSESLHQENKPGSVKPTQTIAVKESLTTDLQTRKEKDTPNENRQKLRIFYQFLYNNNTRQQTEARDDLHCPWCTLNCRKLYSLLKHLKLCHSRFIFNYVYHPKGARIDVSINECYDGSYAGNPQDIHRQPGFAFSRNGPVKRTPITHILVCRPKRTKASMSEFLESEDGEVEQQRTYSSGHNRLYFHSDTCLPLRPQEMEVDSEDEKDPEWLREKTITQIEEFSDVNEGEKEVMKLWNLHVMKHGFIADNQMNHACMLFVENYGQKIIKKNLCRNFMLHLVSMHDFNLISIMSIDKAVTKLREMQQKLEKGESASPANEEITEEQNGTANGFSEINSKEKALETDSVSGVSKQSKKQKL
wild-type EZH2, sequence (Q09028 whole entry partner): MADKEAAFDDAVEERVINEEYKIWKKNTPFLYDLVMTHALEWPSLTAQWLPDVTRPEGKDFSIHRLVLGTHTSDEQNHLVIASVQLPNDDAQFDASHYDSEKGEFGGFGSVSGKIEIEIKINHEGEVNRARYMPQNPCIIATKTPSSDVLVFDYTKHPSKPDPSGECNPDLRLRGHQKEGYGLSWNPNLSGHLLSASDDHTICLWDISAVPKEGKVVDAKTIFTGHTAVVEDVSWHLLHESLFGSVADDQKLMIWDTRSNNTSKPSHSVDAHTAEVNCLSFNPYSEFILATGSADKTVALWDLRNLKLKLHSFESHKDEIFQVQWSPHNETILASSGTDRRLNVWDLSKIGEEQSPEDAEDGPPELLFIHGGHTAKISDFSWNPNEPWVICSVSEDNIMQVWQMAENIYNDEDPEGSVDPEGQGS
T3 sequence (Q15910 whole entry Y641N): as the sequence (Q15910 whole entry) above, with Y641N counted along it
T3 sequence (O75530 whole entry partner): as the sequence (O75530 whole entry partner) above
T3 sequence (Q15022 whole entry partner): as the sequence (Q15022 whole entry partner) above
T3 sequence (Q09028 whole entry partner): as the sequence (Q09028 whole entry partner) above
T3 sequence (Q6ZN18 whole entry partner): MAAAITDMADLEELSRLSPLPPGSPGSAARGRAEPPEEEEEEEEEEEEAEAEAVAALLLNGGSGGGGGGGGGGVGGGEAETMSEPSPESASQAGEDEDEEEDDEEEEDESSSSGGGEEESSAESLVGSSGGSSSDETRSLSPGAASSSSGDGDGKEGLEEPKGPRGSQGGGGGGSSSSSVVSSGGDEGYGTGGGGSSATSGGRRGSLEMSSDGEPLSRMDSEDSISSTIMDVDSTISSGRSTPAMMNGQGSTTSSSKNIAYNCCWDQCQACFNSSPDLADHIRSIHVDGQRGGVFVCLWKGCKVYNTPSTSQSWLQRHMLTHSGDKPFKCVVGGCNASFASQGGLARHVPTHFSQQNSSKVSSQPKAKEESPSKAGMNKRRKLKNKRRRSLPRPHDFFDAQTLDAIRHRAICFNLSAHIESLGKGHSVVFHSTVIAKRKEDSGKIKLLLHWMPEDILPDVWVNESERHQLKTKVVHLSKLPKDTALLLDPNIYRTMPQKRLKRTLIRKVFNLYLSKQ
T2 sequence (Q15910 whole entry Y641F): as the sequence (Q15910 whole entry) above, with Y641F counted along it
T2 sequence (O75530 whole entry partner): as the sequence (O75530 whole entry partner) above
T2 sequence (Q15022 whole entry partner): as the sequence (Q15022 whole entry partner) above
T2 sequence (Q09028 whole entry partner): as the sequence (Q09028 whole entry partner) above
T2 sequence (Q6ZN18 whole entry partner): as the sequence (Q6ZN18 whole entry partner) above
T1 sequence (Q15910 whole entry A677G): as the sequence (Q15910 whole entry) above, with A677G counted along it
T1 sequence (O75530 whole entry partner): as the sequence (O75530 whole entry partner) above
T1 sequence (Q15022 whole entry partner): as the sequence (Q15022 whole entry partner) above
T1 sequence (Q09028 whole entry partner): as the sequence (Q09028 whole entry partner) above
T1 sequence (Q6ZN18 whole entry partner): as the sequence (Q6ZN18 whole entry partner) above

Take `CCN(c1cc(N2CCc3ccccc3C2)cc(C(=O)NCc2c(C)cc(C)[nH]c2=O)c1C)C1CCOCC1` [Compound 16, 5-(3,4-dihydroisoquinoline-2(1H)-yl)-N-((4,6-dimethyl-2-oxo-1,2-dihydropyridin-3-yl)methyl)-3-(ethyl(tetrahydro-2H-pyran-4-yl)amino)-2-methylbenzamide]: the IC50 in data set [1] was 0.74 nM; in data set [2], 0.82 nM; in data set [4] (setting [10]), 5.12 nM; in data set [5] (setting [11]), 3.34 nM; in data set [6], 0.61 nM; in data set [7], 0.95 nM. Also, in [8] (setting [12]), the IC50 was 1.87 nM. Also, in data set [3], the bioavailability (usually dose-corrected exposure relative to a reference, in per cent) came to 24.4%. For the same molecule, the AUC (commonly concentration integrated over time) stood at 975 ng·h/mL in data set [3] (intravenous dosing 4 mg/kg) and 1190 ng·h/mL in data set [3] (oral dosing 20 mg/kg). Besides, in [3] (intravenous dosing 4 mg/kg), the half-life was 1.87 h. Moreover, in data set [3] (oral dosing 20 mg/kg), the Cmax (as a rule, the peak of the concentration-time curve) is 433 ng/mL.

Take `CCN(c1cc(-c2ccc3c(c2)CCC3N2CCOCC2)c(Cl)c(C(=O)NCc2c(C)cc(C)[nH]c2=O)c1C)C1CCOCC1` (centres unmarked) [Compound 10, 2-chloro-N-((4,6-dimethyl-2-oxo-1,2-dihydropyridin-3-yl)methyl)-5-(ethyl(tetrahydro-2H-pyran-4-yl)amino)-6-methyl-3-(1-morpholino-2,3-dihydro-1H-inden-5-yl)benzamide]: the IC50 is 0.58 nM in data set [2]; 1.17 nM in data set [4] (setting [10]); 0.58 nM in data set [5] (setting [11]); 0.3 nM in data set [6]; 0.63 nM in data set [7]; 0.38 nM in data set [8] (setting [12]). Also, the bioavailability in data set [3] was 30.6%. In addition, the AUC in data set [3] (intravenous dosing 4 mg/kg) was 937 ng·h/mL; in data set [3] (oral dosing 20 mg/kg), 1440 ng·h/mL. Further, the half-life in data set [3] (intravenous dosing 4 mg/kg) was 1.64 h. In addition, the Cmax in data set [3] (oral dosing 20 mg/kg) was found to be 405 ng/mL.

As to `CCN(c1cc(-c2cc3c(cc2F)C(N2CCOCC2)CC3)c(F)c(C(=O)NCc2c(C)cc(C)[nH]c2=O)c1C)C1CCOCC1` (centres unmarked) [Compound 28], the IC50 is 0.5 nM in data set [1]; 3.47 nM in [4] (setting [10]); 2.7 nM in [5] (setting [11]); 0.3 nM in data set [6]; 0.91 nM in data set [7]; 1.53 nM in data set [8] (setting [12]).

For `C=CC(=O)Nc1ccc2c(c1)CN(c1cc(C(=O)NCc3c(C)cc(C)[nH]c3=O)c(C)c(N(CC)C3CCOCC3)c1)C2` [Compound 19, 5-(5-acrylamidoisoindolin-2-yl)-N-((4,6-dimethyl-2-oxo-1,2-dihydropyridin-3-yl)methyl)-3-(ethyl(tetrahydro-2H-pyran-4-yl)amino)-2-methylbenzamide], the IC50 in data set [4] (setting [10]) is 7.75 nM; in [5] (setting [11]), 3.21 nM; in data set [6], 0.08 nM; in data set [7], 0.61 nM; in data set [8] (setting [12]), 2.34 nM.

`CCN(c1cc(N2Cc3ccc(NC4CCOCC4)cc3C2)cc(C(=O)NCc2c(C)cc(C)[nH]c2=O)c1C)C1CCOCC1` [Compound 23]: the IC50 in [1] was 0.66 nM; in data set [4] (setting [10]) it was 6.48 nM; in [5] (setting [11]), 4.09 nM; in data set [6], 0.5 nM; in [7], 0.89 nM; in data set [8] (setting [12]) it was 4.36 nM.

The molecule `CC[C@H](C)n1cc(C)c2c(C(=O)NCc3c(C)cc(C)[nH]c3=O)cc(-c3ccc(N4CCNCC4)nc3)cc21` [GSK126, reference compound] came in with a tumor growth inhibition in data set [9] (50 mg/kg abdominal, once a day for 21 days) of 61%. In addition, the IC50 in data set [4] (setting [13]) was 34.1 nM; in [5] (setting [13]) it was 20.3 nM; in data set [8] (setting [13]) it was 12.2 nM.

`CCN(c1cc(N2Cc3ccccc3C2)cc(C(=O)NCc2c(C)cc(C)[nH]c2=O)c1C)C1CCOCC1` [Compound 15, N-4,6-((dimethyl-2-oxo-1,2-dihydropyridin-3-yl)methyl)-3-(ethyl (tetrahydro-2H-pyran-4-yl)amino)-5-(5-isoindolin-2-yl)-2-methylbenzamide]: the IC50 in data set [1] is 0.24 nM; in data set [2] it was 0.78 nM; in data set [4] (setting [10]), 2.46 nM; in [5] (setting [11]) it was 2.15 nM; in data set [6], 0.1 nM; in data set [8] (setting [12]), 0.93 nM. The bioavailability in data set [3] amounted to 34.5%. In addition, the values for the area under the curve (AUC) in [3] (intravenous dosing 4 mg/kg) and in data set [3] (oral dosing 20 mg/kg) were 893 ng·h/mL and 1540 ng·h/mL, respectively. The half-life in data set [3] (intravenous dosing 4 mg/kg) is 1.42 h. In data set [3] (oral dosing 20 mg/kg), the Cmax was 500 ng/mL.

With `CCN(c1cc(N2Cc3cn(C)cc3C2)cc(C(=O)NCc2c(C)cc(C)[nH]c2=O)c1C)C1CCOCC1` [Compound 21, N-((4,6-dimethyl-2-oxo-1,2-dihydropyridin-3-yl)methyl)-3-(ethyl (tetrahydro-2H-pyran-4-yl)amino)-2-methyl-5-(5-methyl-3,5-dihydropyrrolo[3,4-c]pyrrole-2(1H)-yl)benzamide], the tumor growth inhibition in data set [9] (setting [14]) was 90%. Besides, the bioavailability in [3] was 26.8%. The AUC amounted to 932 ng·h/mL in data set [3] (intravenous dosing 4 mg/kg) and 1250 ng·h/mL in data set [3] (oral dosing 20 mg/kg). Moreover, in data set [3] (intravenous dosing 4 mg/kg), the half-life was 1.72 h. For the same molecule, in [3] (oral dosing 20 mg/kg), the Cmax amounted to 426 ng/mL. Besides, the IC50 was 9.38 nM in data set [4] (setting [10]), 8.15 nM in [5] (setting [11]), 0.9 nM in data set [7] and 7.16 nM in data set [8] (setting [12]).

As for `CCN(c1cc(-c2cc3c(cc2F)C(N2CCOCC2)CC3)cc(C(=O)NCc2c(C)cc(C)[nH]c2=O)c1C)C1CCOCC1` (centres unmarked) [Compound 24], the IC50 in [1] is 0.61 nM; in data set [4] (setting [10]), 5.28 nM; in data set [5] (setting [11]), 4.47 nM; in data set [7], 0.87 nM; in [8] (setting [12]), 2.96 nM.

The molecule `CCN(c1cc(-c2ccc3c(c2)CCC3N2CCOCC2)c(Cl)c(C(=O)NCc2c(OC)cc(C)[nH]c2=O)c1C)C1CCOCC1` (centres unmarked) [Compound 12, 2-chloro-5-(ethyl(tetrahydro-2H-pyran-4-yl)amino)-N-((4-methoxy-6-methyl-2-carbonyl-1,2-dihydropyridin-3-yl)methyl)-6-methyl-3-(1-morpholino-2,3-dihydro-1H-inden-5-yl)benzamide] gave a tumor growth inhibition in data set [9] (setting [14]) of 85%. The bioavailability in [3] was 27.4%. Further, the AUC in data set [3] (intravenous dosing 4 mg/kg) came to 956 ng·h/mL; in data set [3] (oral dosing 20 mg/kg), 1310 ng·h/mL. Further, in [3] (intravenous dosing 4 mg/kg), the half-life was 1.42 h. Moreover, the Cmax in [3] (oral dosing 20 mg/kg) came to 480 ng/mL. Moreover, the IC50 in [4] (Homo sapiens, WSUDLCL2, […]) was 2.36 nM; in [5] (Homo sapiens, KARPAS-422, […]) it was 1.84 nM; in data set [8] (Homo sapiens, Pfeiffer, […]) it was 1.69 nM.

For the molecule `CCN(c1cc(-c2ccc3c(c2)CCN3C2CCOCC2)cc(C(=O)NCc2c(C)cc(C)[nH]c2=O)c1C)C1CCOCC1` [Compound 29, N-((4,6-dimethyl-2-oxo-1,2-dihydropyridin-3-yl)methyl)-3-(ethyl (tetrahydro-2H-pyran-4-yl)amino)-2-methyl-5-(1-(1-tetrahydro-2H-pyran-4-yl)indolin-5-yl)benzamide], the tumor growth inhibition in data set [9] (setting [14]) is recorded as 78%. The IC50 in [4] (setting [10]) is 2.18 nM; in data set [5] (setting [11]), 1.99 nM; in [8] (setting [12]), 1.42 nM.

Take `CCN(c1cc(N2Cc3ccc(N4CCOCC4)cc3C2)cc(C(=O)NCc2c(C)cc(C)[nH]c2=O)c1C)C1CCOCC1` [Compound 18, N-((4,6-dimethyl-2-oxo-1,2-dihydropyridin-3-yl)methyl)-3-(ethyl (tetrahydro-2H-pyran-4-yl)amino)-2-methyl-5-(5-morpholinoisoindolin-2-yl) benzamide]: the IC50 was 0.64 nM in data set [1]; 0.71 nM in [2]; 2.89 nM in data set [4] (setting [10]); 2.34 nM in [5] (setting [11]); 0.5 nM in data set [6]; 0.8 nM in [7]. In addition, the IC50 in data set [8] (setting [12]) is 1.86 nM. The bioavailability in [3] stood at 34.3%. Besides, the AUC in data set [3] (intravenous dosing 4 mg/kg) was 969 ng·h/mL; in data set [3] (oral dosing 20 mg/kg), 1660 ng·h/mL. Further, the half-life in data set [3] (intravenous dosing 4 mg/kg) was 1.57 h. Also, the maximum concentration (Cmax) in data set [3] (oral dosing 20 mg/kg) turned out to be 457 ng/mL.
